Numbers after ± are expanded uncertainties.

Consider `CCCCn1cc[n+](C)c1.Cc1ccc(S(=O)(=O)[O-])cc1` [1-butyl-3-methylimidazolium tosylate], for which the Triple point temperature is, setting by setting: (Crystal 1, Adiabatic calorimetry) 343.8 ± 0.67 K; (Crystal 2, Adiabatic calorimetry) 152 ± 1 K; (Metastable crystal) 342.48 ± 0.2 K.

The values above are taken from the NIST ThermoML archive (doi:10.1021/je700152c).
